Measurements from US20040248897A1, “Substituted N-acylaniline derivatives, the preparation thereof, and their use as pharmaceutical compositions” (Boehringer Ingelheim Pharma GmbH & Co. KG, priority 2001, published 2004).

Test system: human citrated plasma
Test: aPTT time prolongation in human citrated plasma (Biomatic B10 coagulometer)
Assay type: biochemical
Details: effective concentration at which the aPTT time is double compared with the control, 37° C.
Experimental: were investigated for their effect on prolonging the aPTT time as follows:
Materials: plasma, from human citrated blood;
PTT reagent, Boehringer Mannheim (524298);
Calcium solution (0.025 mol/L), Behring Werke, Marburg (ORH 056/57),
Diethylbarbiturate acetate buffer, Behring Werke, Marburg (ORWH 60/61); and
Biomatic B10 coagulometer, Desaga, Wiesloch.
The aPTT time was determined using a Biomatic B10 coagulometer made by Messrs. Desaga.
The test substance was placed in the test tubes prescribed by the manufacturer with 0.1 mL of human citrated plasma and 0.1 mL of PTT reagent. The mixture was incubated for three minutes at 37° C. The clotting reaction was started by the addition of 0.1 mL of calcium solution. The time is measured using the apparatus from the addition of the calcium solution up to the clotting of the mixture. Mixtures to which 0.1 mL of DBA buffer had been added were used as the controls.
According to the definition, a dosage-activity curve was used to determine the effective concentration of the substance at which the aPTT time is double compared with the control.

SMILES | aPTT time (ED200 in μM) [µM]
Cc1cc(C(=O)N2CCCC2C)c(C)cc1NC(=O)CNc1ccc(C(=N)N)cc1 (centres unmarked) [A, 4-{N-[2,5-dimethyl-4-(2-methylpyrrolidinocarbonyl)phenylaminocarbonylmethyl]-amino}benzamidine] | 0.65
Cc1cc(C(=O)C(C)C)c(C)cc1NC(=O)CNc1ccc(C(=N)N)cc1 [B, 4-[N-(2,5-dimethyl-4-isopropylcarbonylphenylaminocarbonylmethyl)amino]benzamidine] | 0.67
